Experiments:
Assay type in all cases: cell-based; call rule not given here
[1] = molecular target: T1, ATP-dependent translocase ABCB1 (Homo sapiens, UniProt P08183); test: Reversal of P-gp mediated multidrug resistance in human HepG2/Dox cells assessed as potentiation of doxorubicin-induced cell growth inhibition at 10 uM measured after 48 hrs by MTT assay (reference value: 24%)
[2] = molecular target: T1, ATP-dependent translocase ABCB1; test: Reversal of P-gp mediated multidrug resistance in human MCF7/ADM cells assessed as potentiation of doxorubicin-induced cell growth inhibition at 10 uM measured after 48 hrs by MTT assay
[3] = Cytotoxicity against human MCF7/ADM cells assessed as reduction in cell viability at 10 uM measured after 48 hrs by MTT assay
[4] = Cytotoxicity against human HepG2/DOX cells assessed as reduction in cell viability at 10 uM measured after 48 hrs by MTT assay
[5] = molecular target: T1, ATP-dependent translocase ABCB1; test: Reversal of P-gp mediated multidrug resistance in human HepG2/Dox cells assessed as potentiation of doxorubicin-induced cell growth inhibition at 10 uM measured after 48 hrs by MTT assay
[6] = molecular target: T1, ATP-dependent translocase ABCB1; test: Reversal of P-gp mediated multidrug resistance in human MCF7/ADM cells assessed as potentiation of doxorubicin-induced cell growth inhibition at 10 uM measured after 48 hrs by MTT assay (reference value: 5%)

T1 sequence (P08183 whole entry): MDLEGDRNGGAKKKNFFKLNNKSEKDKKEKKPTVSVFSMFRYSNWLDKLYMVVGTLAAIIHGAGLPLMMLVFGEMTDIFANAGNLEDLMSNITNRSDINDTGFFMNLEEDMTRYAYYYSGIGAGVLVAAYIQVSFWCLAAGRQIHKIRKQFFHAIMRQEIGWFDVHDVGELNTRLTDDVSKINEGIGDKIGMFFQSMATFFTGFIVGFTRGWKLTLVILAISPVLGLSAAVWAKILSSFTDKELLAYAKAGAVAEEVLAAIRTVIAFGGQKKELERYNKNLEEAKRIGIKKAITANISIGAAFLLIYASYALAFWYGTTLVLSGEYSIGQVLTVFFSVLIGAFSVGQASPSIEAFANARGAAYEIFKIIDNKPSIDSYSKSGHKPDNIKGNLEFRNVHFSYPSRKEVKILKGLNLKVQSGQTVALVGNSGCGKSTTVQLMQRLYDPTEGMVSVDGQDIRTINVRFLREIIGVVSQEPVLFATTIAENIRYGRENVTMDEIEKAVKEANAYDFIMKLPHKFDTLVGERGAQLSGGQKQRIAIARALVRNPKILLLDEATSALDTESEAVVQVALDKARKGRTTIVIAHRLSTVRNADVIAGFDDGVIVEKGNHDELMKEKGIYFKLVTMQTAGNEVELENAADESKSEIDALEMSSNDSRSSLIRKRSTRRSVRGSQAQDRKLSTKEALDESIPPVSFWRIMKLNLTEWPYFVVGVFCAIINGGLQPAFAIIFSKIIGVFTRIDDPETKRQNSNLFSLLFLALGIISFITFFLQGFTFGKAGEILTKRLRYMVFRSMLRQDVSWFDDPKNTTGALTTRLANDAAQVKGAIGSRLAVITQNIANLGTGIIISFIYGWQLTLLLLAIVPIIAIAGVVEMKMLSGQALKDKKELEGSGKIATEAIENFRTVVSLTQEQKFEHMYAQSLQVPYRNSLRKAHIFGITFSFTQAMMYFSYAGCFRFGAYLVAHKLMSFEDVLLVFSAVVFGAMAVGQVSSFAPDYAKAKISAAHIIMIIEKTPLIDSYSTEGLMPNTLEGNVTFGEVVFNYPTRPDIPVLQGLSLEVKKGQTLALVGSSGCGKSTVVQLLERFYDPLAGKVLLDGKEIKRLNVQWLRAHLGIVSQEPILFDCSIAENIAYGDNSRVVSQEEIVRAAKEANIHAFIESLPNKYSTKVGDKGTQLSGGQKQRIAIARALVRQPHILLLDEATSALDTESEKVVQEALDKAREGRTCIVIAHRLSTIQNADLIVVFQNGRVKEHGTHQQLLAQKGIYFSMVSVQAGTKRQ

inhibition at 10 µM [1]	SMILES	inhibition (INH) [2]	Activity [3]	Activity [4]	inhibition (INH) [5]	inhibition at 10 µM [6]
81%	CCCN(C(=O)CCCCCCC(=O)N(CCC)[C@H]1CC2=CC(=O)O[C@@]23C[C@@H]1N1CCCC[C@@H]13)[C@H]1CC2=CC(=O)O[C@@]23C[C@@H]1N1CCCC[C@@H]13	Not Active				
	CCCN(C(=O)CCCCCCCCC(=O)N(CCC)[C@H]1CC2=CC(=O)O[C@]23C[C@H]1N1CCCC[C@H]13)[C@H]1CC2=CC(=O)O[C@]23C[C@H]1N1CCCC[C@H]13	Active	Toxic	Toxic	Active	
79%	CCCN(C(=O)CCCCC(=O)N(CCC)[C@H]1CC2=CC(=O)O[C@@]23C[C@@H]1N1CCCC[C@@H]13)[C@H]1CC2=CC(=O)O[C@@]23C[C@@H]1N1CCCC[C@@H]13	Not Active				
	CCCN(C(=O)CCCCCCCC(=O)N(CCC)[C@H]1CC2=CC(=O)O[C@]23C[C@H]1N1CCCC[C@H]13)[C@H]1CC2=CC(=O)O[C@]23C[C@H]1N1CCCC[C@H]13	Active	Toxic	Toxic	Active	

SMILES	inhibition at 10 µM [1]	inhibition (INH) [2]	Activity [3]	Activity [4]	inhibition (INH) [5]	inhibition at 10 µM [6]
O=C1C=C2C=C[C@@H]3C[C@@]2(O1)[C@H]1CCCCN31 [SECURININE]	36%					31%
